Measurements reported in the supplement of paper PMC8617591.

Columns and labels:
[1] = test system: Mycobacterium tuberculosis Erdman (autoluminescent); test: total FIC50 (Loewe) at 50% inhibition, three-drug combination (log2); higher = more antagonistic
Procedure: (§1)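 DiaMOND equipotent three-drug combination dose responses (10 doses, 1.5- or 2-fold spacing, centred on IC90) against autoluminescent M. tuberculosis Erdman in 8 in vitro models. Read-out is OD600, or luminescence for the intracellular and dormancy models, normalised to untreated wells. Hill-fit Einf, AUC25 and GRinf are potency metrics; FIC50 and FIC90 are total Loewe fractional inhibitory concentrations as log2 (negative = synergy).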

[2] = test system: Mycobacterium tuberculosis Erdman (autoluminescent); test: Einf, fitted maximum growth inhibition of three-drug combination (fraction); higher = stronger maximal inhibition
Procedure: as §1

[3] = test system: Mycobacterium tuberculosis Erdman (autoluminescent); test: AUC25, normalised area under dose response up to IC25 (three-drug combination) (fraction (0-1)); higher = more potent at low dose
Procedure: as §1

[4] = test system: Mycobacterium tuberculosis Erdman (autoluminescent); test: GRinf, maximum normalised growth rate inhibition (three-drug combination) (unitless (-1 to 1)); higher = less effect (negative = killing)
Procedure: as §1

[5] = test system: Mycobacterium tuberculosis Erdman (autoluminescent); test: total FIC90 (Loewe) at 90% inhibition, three-drug combination (log2); higher = more antagonistic
Procedure: as §1

CC[C@@H](CO)NCCN[C@@H](CC)CO [ethambutol] + CC(=O)NC[C@H]1CN(c2ccc(N3CCOCC3)c(F)c2)C(=O)O1 [linezolid] + CO[C@H]1/C=C/O[C@@]2(C)Oc3c(C)c(O)c4c(O)c(c(/C=N/N5CCN(C6CCCC6)CC5)c(O)c4c3C2=O)NC(=O)/C(C)=C\C=C\[C@H](C)[C@H](O)[C@@H](C)[C@@H](O)[C@@H](C)[C@H](OC(C)=O)[C@@H]1C [rifapentine]
Conditions | AUC25, [3] | Einf, [2] | GRinf, [4] | total FIC50, [1] | total FIC90, [5]
in vitro model: acidic pH 5.7, time point: constant (~7 days, model-specific) | 0.0936 | 0.872 | -0.0867 | 0.452 | –
in vitro model: acidic pH 5.7, time point: terminal (~4-5 doublings, model-specific) | 0.0542 | 0.967 | -0.0664 | 1.01 | 0.595
in vitro model: intracellular J774, time point: constant = terminal | – | 0.962 | -0.261 | – | -1.64

Conditions | AUC25, [3] | Einf, [2] | GRinf, [4] | total FIC50, [1] | total FIC90, [5]
in vitro model: butyrate, time point: constant (~7 days, model-specific) | 0.0551 | 0.886 | 0.0937 | 0.371 | –
in vitro model: butyrate, time point: terminal (~4-5 doublings, model-specific) | 0.0436 | 0.94 | 0.0645 | 0.251 | -0.559
in vitro model: cholesterol 0.05 mM, time point: constant (~7 days, model-specific) | 0.146 | 0.726 | -0.109 | -0.662 | –
in vitro model: cholesterol 0.05 mM, time point: terminal (~4-5 doublings, model-specific) | 0.154 | 0.936 | -0.279 | -1.58 | –
in vitro model: cholesterol-high 0.2 mM, time point: constant (~7 days, model-specific) | 0.102 | 0.996 | -0.732 | 0.505 | –
in vitro model: cholesterol-high 0.2 mM, time point: terminal (~4-5 doublings, model-specific) | 0.103 | 1 | -0.843 | 0.495 | 1.02
in vitro model: dormancy (butyrate + nitrate, low O2), time point: constant (~7 days, model-specific) | 0.124 | 0.869 | 0.279 | 0.075 | –
in vitro model: dormancy (butyrate + nitrate, low O2), time point: terminal (~4-5 doublings, model-specific) | 0.131 | 0.996 | -0.349 | -0.164 | 1.09
in vitro model: standard 7H9 glycerol, time point: constant = terminal | 0.0503 | 0.887 | 0.155 | 0.486 | –
in vitro model: valerate, time point: constant (~7 days, model-specific) | 0.0575 | 0.828 | 0.0988 | 0.319 | –
in vitro model: valerate, time point: terminal (~4-5 doublings, model-specific) | 0.0307 | 0.917 | 0.0733 | 0.429 | –

CC[C@@H](CO)NCCN[C@@H](CC)CO [ethambutol] + CC(=O)NC[C@H]1CN(c2ccc(N3CCOCC3)c(F)c2)C(=O)O1 [linezolid] + CO[C@H]1/C=C/O[C@@]2(C)Oc3c(C)c(O)c4c(O)c(c(/C=N/N5CCN(C)CC5)c(O)c4c3C2=O)NC(=O)/C(C)=C\C=C\[C@H](C)[C@H](O)[C@@H](C)[C@@H](O)[C@@H](C)[C@H](OC(C)=O)[C@@H]1C [rifampicin]
Conditions | AUC25, [3] | Einf, [2] | GRinf, [4] | total FIC50, [1] | total FIC90, [5]
in vitro model: acidic pH 5.7, time point: constant (~7 days, model-specific) | 0.107 | 0.895 | -0.171 | 0.267 | –
in vitro model: acidic pH 5.7, time point: terminal (~4-5 doublings, model-specific) | 0.0468 | 0.972 | -0.121 | 0.894 | 0.219
in vitro model: intracellular J774, time point: constant = terminal | – | 0.96 | -0.326 | – | -2.16

Conditions | AUC25, [3] | Einf, [2] | GRinf, [4] | total FIC50, [1] | total FIC90, [5]
in vitro model: butyrate, time point: constant (~7 days, model-specific) | 0.0696 | 0.907 | 0.0409 | 0.215 | –
in vitro model: butyrate, time point: terminal (~4-5 doublings, model-specific) | 0.0538 | 0.952 | 0.0366 | 0.088 | -0.801
in vitro model: cholesterol 0.05 mM, time point: constant (~7 days, model-specific) | 0.163 | 0.704 | -0.271 | -0.838 | –
in vitro model: cholesterol 0.05 mM, time point: terminal (~4-5 doublings, model-specific) | 0.142 | 0.945 | -0.414 | -1.2 | –
in vitro model: cholesterol-high 0.2 mM, time point: constant (~7 days, model-specific) | 0.0878 | 0.971 | -0.549 | 0.326 | –
in vitro model: cholesterol-high 0.2 mM, time point: terminal (~4-5 doublings, model-specific) | 0.0943 | 1 | -0.743 | 0.388 | 0.577
in vitro model: dormancy (butyrate + nitrate, low O2), time point: constant (~7 days, model-specific) | 0.086 | 0.805 | 0.521 | 0.204 | –
in vitro model: dormancy (butyrate + nitrate, low O2), time point: terminal (~4-5 doublings, model-specific) | 0.0341 | 0.979 | -0.0529 | 0.514 | -0.712
in vitro model: standard 7H9 glycerol, time point: constant = terminal | 0.0613 | 0.9 | 0.107 | 0.293 | –
in vitro model: valerate, time point: constant (~7 days, model-specific) | 0.0592 | 0.858 | 0.0331 | 0.437 | –
in vitro model: valerate, time point: terminal (~4-5 doublings, model-specific) | 0.0352 | 0.921 | 0.0654 | 0.622 | -0.279
